14 molecules from patent publication US20260109712A1, “RIFAMYCINS FOR NONTUBERCULOUS MYCOBACTERIA” (priority 2022, published 2026) can be followed below.

One series relates to M. abscessus ATCC 19977. As to the kind of experiment: MIC assay in 96-well plate format, wild-type strain. It counts as cell-based, Mycobacterium abscessus. Conditions: for MICWT: Table 10. The procedure, abridged:
(§1)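 Two-fold, ten-point dilutions in 7H9 with 2% DMSO; mid-log culture diluted to OD600=0.1 (1×10^7 CFU/mL). Incubated 3 days at 37 °C, shaking 110 RPM; growth = Day 3 minus Day 0 OD600, expressed as percentage of drug-free growth and plotted against concentration. Two biological replicates.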

The subject of another series is Mycobacterium abscessus. Put plainly: MIC against Mycobacterium abscessus (strain not given). It counts as cell-based.
A further series relates to Δarr M. abscessus. As to the kind of experiment: MIC assay, isogenic arr-deleted strain. Format: cell-based, Mycobacterium abscessus. Conditions: Table 10. The method in brief:
as §1

A short description of series [1]: Plasma protein binding assay (rapid equilibrium dialysis). Format: in vitro ADME. The procedure, abridged:
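Plasma was spiked to 10,000 ng/mL compound and dialysed against PBS by rapid equilibrium dialysis for 4 h at 37° C with shaking at 300 RPM. Plasma and buffer aliquots were matrix-matched 1:1 […] and quantified by LC-MS/MS.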
A general note: Equilibrium dialysis compares concentrations on both sides of a semipermeable membrane.

A short description of series [2]: Mouse pharmacokinetics studies. Format: in vivo, CD-1 mice. To be noted: mouse, in vivo; for AUCp.o.: po. The procedure:
Blood was captured in CB300 blood collection tubes containing K2EDTA and stored on ice. Plasma was recovered after centrifugation and stored at −80° C. until analyzed by high pressure liquid chromatography coupled to tandem mass spectrometry (LC-MS/MS). Pharmacokinetic parameters were calculated using non-compartmental pharmacokinetic analysis. […] Extracts were vortexed for 5 minutes and centrifuged at 4000 RPM for 5 minutes. 75 μL of supernatant was transferred for LC-MS/MS analysis and diluted with 75 μL of Milli-Q deionized water. Rifabutin was purchased from Carbosynth. C25-desacetyl rifabutin and rifabutin-d7 were purchased from Toronto Research Chemical. Verapamil was purchased from Sigma-Aldrich. […] Multiple-reaction monitoring of parent/daughter transitions in electrospray positive-ionization mode was used to quantify all analytes. […] Data processing was performed using Analyst software (version 1.6.2; Applied Biosystems Sciex).

Where [3] appears, read: Mycobacteroides abscessus, 72 h, Table 22, read-out: MICMab.
[4] abbreviates: Mycobacteroides abscessus, ATCC19977, Table 15, heterocyclic aromatic carbamates, read-out: WT Mab MIC.
Setting [5] is: Mycobacteroides abscessus, ATCC19977, Mycobacterium abscessus ATCC 19977, Table 11, read-out: MIC.

A word on the fraction unbound: it is the share of the substance not bound to proteins or other matrix. One may read the Vd as the apparent volume that relates the amount in the body to the concentration in plasma or blood. A high value points to extensive tissue distribution.

In brackets after ≈: the same amount, converted by molar mass. Read-outs that look alike come from different tables or passages of the source.

Experimental for CYP3A4: The threshold cycle (CT) was measured for each isoform cDNA by real time qRT-PCR. The mRNA level of each isoform was assessed by the relative quantifiation with reference gene (GAPDH) as the normalizer method. The normalized fold induction was calculated by 2^−ΔΔCT method, in which 0.1% DMSO was used as the reference (vehicle control). The induction potential of each test compound was analyzed by comparing its fold induction to a pre-determined cutoff value for each lot of hepatocytes. The hepatocytes lots used in this study were validated using 10 known inducers and 5 known non-inducers for each isozyme. A cutoff value is determined based on the validation study for each hepatocytes lot.

Consider `CO[C@H]1/C=C/O[C@@]2(C)Oc3c(C)c(O)c4c(c3C2=O)C2=NC3(CCN(CC(C)C)CC3)NC2=C(NC(=O)/C(C)=C/C=C/[C@H](C)[C@H](O)[C@@H](C)[C@@H](O)[C@@H](C)[C@H](OC(=O)c2ccccc2)[C@@H]1C)C4=O` [UMN7], for which the MICWT against M. abscessus ATCC 19977 amounted to 0.053 µM. Besides, the MIC in the series with Mycobacterium abscessus (setting [3]) came to 0.053 µM (≈ 0.0482 µg/mL). Besides, the “CYP3A4 gene fold-induction at 10 μM” value in the series with CYP3A4 (human, 10 μM) is 8.6. In the series with Δarr M. abscessus, this molecule showed an MICΔorr of 0.059 µM. This molecule also displayed a fraction unbound at 4 h, 10000 ng/mL in series [1] (plasma) of 0.0003.
Consider `CO[C@H]1/C=C/O[C@@]2(C)Oc3c(C)c(O)c4c(c3C2=O)C2=NC3(CCN(CC(C)C)CC3)NC2=C(NC(=O)/C(C)=C/C=C/[C@H](C)[C@H](O)[C@@H](C)[C@@H](O)[C@@H](C)[C@H](OC(=O)NC2CC(C)(C)NC(C)(C)C2)[C@@H]1C)C4=O` [UMN32], for which the MIC in the series on M. abscessus ATCC 19977 (Mycobacteroides abscessus, ATCC19977, Table 14, carbamate analogs, read-out: WT Mab MIC) was determined as 0.04 µM (≈ 0.0395 µg/mL); in the series with Mycobacterium abscessus (setting [3]), 0.04 µM (≈ 0.0395 µg/mL). The same molecule showed an MICWT against M. abscessus ATCC 19977 of 0.04 µM. For the same molecule, the “CYP3A4 gene fold-induction at 10 μM” value in the series on CYP3A4 (human, 10 μM) turned out to be 0.6. The same molecule displayed an MICΔorr in the series with Δarr M. abscessus of 0.09 µM. In series [1] (4 h, 10000 ng/mL), the ƒu came to 6.7%. In addition, in series [1] (plasma), the fraction unbound at 4 h, 10000 ng/mL amounted to 0.067.
Molecule `CO[C@H]1/C=C/O[C@@]2(C)Oc3c(C)c(O)c4c(c3C2=O)C2=NC3(CCN(CC(C)C)CC3)NC2=C(NC(=O)/C(C)=C/C=C/[C@H](C)[C@H](O)[C@@H](C)[C@@H](O)[C@@H](C)[C@H](OC(=O)C2CCC2)[C@@H]1C)C4=O` [UMN80] registered an MICWT with M. abscessus ATCC 19977 of 1.2 µM. The MIC in the series with Mycobacterium abscessus (Table 13, read-out: Mab MIC) was determined as 1.2 µM (≈ 1.06 µg/mL). In the series on Δarr M. abscessus, this molecule displayed an MICΔorr of 0.026 µM. The molecule further had a ƒu in series [1] of 0.3%. The molecule also returned a plasma unbound fraction in series [1] (plasma) of 0.29%.
In turn, `CO[C@H]1/C=C/O[C@@]2(C)Oc3c(C)c(O)c4c(c3C2=O)C2=NC3(CCN(CC(C)C)CC3)NC2=C(NC(=O)/C(C)=C/C=C/[C@H](C)[C@H](O)[C@@H](C)[C@@H](O)[C@@H](C)[C@H](OC(=O)C2CCCC2)[C@@H]1C)C4=O` [UMN81] showed an MICWT against M. abscessus ATCC 19977 of 1.2 µM. The MIC in the series with Mycobacterium abscessus (Table 13, read-out: Mab MIC) was determined as 1.2 µM (≈ 1.08 µg/mL). Further, in the series with Δarr M. abscessus, the MICΔorr was found to be 0.03 µM. Besides, the ƒu in series [1] is 0.05%. Besides, the plasma unbound fraction in series [1] (plasma) is 0.05%.
Turning to `CO[C@H]1/C=C/O[C@@]2(C)Oc3c(C)c(O)c4c(c3C2=O)C2=NC3(CCN(CC(C)C)CC3)NC2=C(NC(=O)/C(C)=C/C=C/[C@H](C)[C@H](O)[C@@H](C)[C@@H](O)[C@@H](C)[C@H](OC(=O)C2CCCCC2)[C@@H]1C)C4=O` [UMN82], the MICWT against M. abscessus ATCC 19977 turned out to be 0.54 µM. In the series with Mycobacterium abscessus (Table 13, read-out: Mab MIC), the MIC was determined as 1.1 µM (≈ 1.01 µg/mL). Moreover, the MICΔorr with Δarr M. abscessus was determined as 0.05 µM. For the same molecule, in series [1], the ƒu was determined as 0.03%. Also, the plasma unbound fraction in series [1] (plasma) turned out to be 0.03%.
For `CO[C@H]1/C=C/O[C@@]2(C)Oc3c(C)c(O)c4c(c3C2=O)C2=NC3(CCN(CC(C)C)CC3)NC2=C(NC(=O)/C(C)=C/C=C/[C@H](C)[C@H](O)[C@@H](C)[C@@H](O)[C@@H](C)[C@H](OC(=O)c2cscn2)[C@@H]1C)C4=O` [UMN94], in series [2], the CL is 5.0 mL/min/kg, the F was determined as 77%, the Vd stood at 1.22 L/kg and the ƒAUC/MIC is 22.4. The AUCp.o. in series [2] stood at 25765 ng·h/mL. Further, the MIC in the series with Mycobacterium abscessus (Table 13, read-out: Mab MIC) amounted to 0.036 µM (≈ 0.033 µg/mL). For the same molecule, the ƒu in series [1] came to 2.9%.
As for `CO[C@H]1/C=C/O[C@@]2(C)Oc3c(C)c(O)c4c(c3C2=O)C2=NC3(CCN(CC(C)C)CC3)NC2=C(NC(=O)/C(C)=C/C=C/[C@H](C)[C@H](O)[C@@H](C)[C@@H](O)[C@@H](C)[C@H](OC(=O)Nc2ccncn2)[C@@H]1C)C4=O` [UMN118], the MIC with M. abscessus ATCC 19977 (setting [4]) and with Mycobacterium abscessus (setting [3]) was 0.032 µM (≈ 0.0296 µg/mL) each time. Besides, in the series on CYP3A4 (human, 10 μM), the “CYP3A4 gene fold-induction at 10 μM” value turned out to be 2.0. In addition, in series [1] (4 h, 10000 ng/mL), the ƒu was 5.1%.
As for `CO[C@H]1/C=C/O[C@@]2(C)Oc3c(C)c(O)c4c(c3C2=O)C2=NC3(CCN(CC(C)C)CC3)NC2=C(NC(=O)/C(C)=C/C=C/[C@H](C)[C@H](O)[C@@H](C)[C@@H](O)[C@@H](C)[C@H](OC(=O)Nc2cnccn2)[C@@H]1C)C4=O` [UMN120], the MIC with M. abscessus ATCC 19977 (Table 15, heterocyclic aromatic carbamates, read-out: WT Mab MIC) was determined as 0.028 µM (≈ 0.0259 µg/mL). For the same molecule, in series [2], the F was 73%, the ƒAUC/MIC worked out at 88.8 and the AUCp.o. was 55072 ng·h/mL. The MIC with Mycobacterium abscessus (Table 22, read-out: MICMab) turned out to be 0.028 µM (≈ 0.0259 µg/mL). Also, in the series on Mycobacterium abscessus (against Mycobacterium abscessus, Table 19, read-out: MIC), the MIC was 0.028 µM (≈ 0.0259 µg/mL). Moreover, in the series with CYP3A4, the “CYP3A4 gene fold-induction at 10 μM” value was 0.7. In series [1], this molecule yielded a ƒu of 4.2%. In addition, the “plasma unbound (ƒu, %)” value in series [1] (plasma) was determined as 4.2%.
In the case of `CO[C@H]1/C=C/O[C@@]2(C)Oc3c(C)c(O)c4c(c3C2=O)C2=NC3(CCN(CC(C)C)CC3)NC2=C(NC(=O)/C(C)=C/C=C/[C@H](C)[C@H](O)[C@@H](C)[C@@H](O)[C@@H](C)[C@H](OC(=O)Nc2cccnn2)[C@@H]1C)C4=O` [UMN121], the MIC in the series on M. abscessus ATCC 19977 (setting [5]) and in the series with Mycobacterium abscessus (setting [3]) was 0.038 µM (≈ 0.0352 µg/mL) in each case. Further, the “CYP3A4 gene fold-induction at 10 μM” value in the series on CYP3A4 (human, 10 μM) is given as 2.7.
Regarding `CO[C@H]1/C=C/O[C@@]2(C)Oc3c(C)c(O)c4c(c3C2=O)C2=NC3(CCN(CC(C)C)CC3)NC2=C(NC(=O)/C(C)=C/C=C/[C@H](C)[C@H](O)[C@@H](C)[C@@H](O)[C@@H](C)[C@H](OC(=O)Nc2ccn3nccc3c2)[C@@H]1C)C4=O` [UMN123], the MIC in the series with Mycobacterium abscessus (setting [3]) was 0.051 µM (≈ 0.0492 µg/mL). The “CYP3A4 gene fold-induction at 10 μM” value with CYP3A4 (human, 10 μM) turned out to be 1.2.
In the same order, the values of `CO[C@H]1/C=C/O[C@@]2(C)Oc3c(C)c(O)c4c(c3C2=O)C2=NC3(CCN(CC(C)C)CC3)NC2=C(NC(=O)/C(C)=C/C=C/[C@H](C)[C@H](O)[C@@H](C)[C@@H](O)[C@@H](C)[C@H](OC(=O)Nc2cccn3ccnc23)[C@@H]1C)C4=O` [UMN125] are 0.03 µM (≈ 0.0289 µg/mL) and 3.6.
For `CO[C@H]1/C=C/O[C@@]2(C)Oc3c(C)c(O)c4c(c3C2=O)C2=NC3(CCN(CC(C)C)CC3)NC2=C(NC(=O)/C(C)=C/C=C/[C@H](C)[C@H](O)[C@@H](C)[C@@H](O)[C@@H](C)[C@H](OC(=O)Nc2c(C)nc3ccccn23)[C@@H]1C)C4=O` [UMN131], the MIC in the series with M. abscessus ATCC 19977 (setting [5]) and in the series with Mycobacterium abscessus (setting [3]) was 0.049 µM (≈ 0.0479 µg/mL) in each case. The “CYP3A4 gene fold-induction at 10 μM” value in the series with CYP3A4 (human, 10 μM) was determined as 3.0.
In the case of `CO[C@H]1/C=C/O[C@@]2(C)Oc3c(C)c(O)c4c(c3C2=O)C2=NC3(CCN(CC(C)C)CC3)NC2=C(NC(=O)/C(C)=C/C=C/[C@H](C)[C@H](O)[C@@H](C)[C@@H](O)[C@@H](C)[C@H](OC(=O)Nc2cscn2)[C@@H]1C)C4=O` [UMN132], the MIC in the series with M. abscessus ATCC 19977 (setting [4]) and in the series on Mycobacterium abscessus (setting [3]) was 0.026 µM (≈ 0.0242 µg/mL) each time. The “CYP3A4 gene fold-induction at 10 μM” value in the series on CYP3A4 (human, 10 μM) was found to be 1.4. The molecule further displayed a ƒu in series [1] (4 h, 10000 ng/mL) of 1.7%.
For `CO[C@H]1/C=C/O[C@@]2(C)Oc3c(C)c(O)c4c(c3C2=O)C2=NC3(CCN(CC(C)C)CC3)NC2=C(NC(=O)/C(C)=C/C=C/[C@H](C)[C@H](O)[C@@H](C)[C@@H](O)[C@@H](C)[C@H](OC(=O)Nc2cncs2)[C@@H]1C)C4=O` [UMN133], the MIC with M. abscessus ATCC 19977 (setting [4]) and in the series with Mycobacterium abscessus (setting [3]) was 0.046 µM (≈ 0.0428 µg/mL) in each case. In the series with CYP3A4 (human, 10 μM), the “CYP3A4 gene fold-induction at 10 μM” value is 1.7. For the same molecule, the ƒu in series [1] (4 h, 10000 ng/mL) is reported as 3.0%.
